Consider 1 compound from patent US10736898B2, “Positive allosteric modulators of the muscarinic acetylcholine receptor M4” (Vanderbilt University, priority 2017, dated 2020).

One data set deals with T1, P450 1A2 (Homo sapiens, UniProt P05177).
T1 sequence (P05177 1-516): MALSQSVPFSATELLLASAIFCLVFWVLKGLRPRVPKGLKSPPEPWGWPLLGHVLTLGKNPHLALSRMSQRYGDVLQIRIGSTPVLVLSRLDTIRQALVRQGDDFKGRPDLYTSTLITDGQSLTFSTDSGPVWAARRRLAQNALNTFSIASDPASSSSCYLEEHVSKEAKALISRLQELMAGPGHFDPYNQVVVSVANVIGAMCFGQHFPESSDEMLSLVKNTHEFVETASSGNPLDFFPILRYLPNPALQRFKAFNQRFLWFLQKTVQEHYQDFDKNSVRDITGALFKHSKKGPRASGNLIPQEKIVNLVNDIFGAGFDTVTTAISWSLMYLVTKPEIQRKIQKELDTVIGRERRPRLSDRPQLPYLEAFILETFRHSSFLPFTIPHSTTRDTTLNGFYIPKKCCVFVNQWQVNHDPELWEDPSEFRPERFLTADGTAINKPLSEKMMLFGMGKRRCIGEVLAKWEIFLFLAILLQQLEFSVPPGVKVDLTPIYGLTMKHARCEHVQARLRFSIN
As to the kind of experiment: P450 1A2 inhibition. The data set is classed as in vitro ADME. The method, then:
(§1) Compound 1 was evaluated in several well-known in vitro assays to investigate both metabolism and pharmacokinetics. Bidirectional permeability/efflux was determined in MDCK-MDR1 cells, which originate from transfection of Madin Darby canine kidney (MDCK) cells with the MDR1 gene. These assays were performed according to known methods as generally described in the following references: Conde-Ceide et al. ACS Med. Chem. Lett. 2015, 6, 716-720; Morris et al. J. Med. Chem. 2014, 57, 10192-10197; and Bubser et al. ACS Chem. Neurosci. 2014, 5, 920-942.

In another data set the test system is MDCK-MDR1 cells. Briefly: Bidirectional permeability/efflux in MDCK-MDR1 cells. The data set is classed as in vitro ADME, canine. To be noted: efflux ratio. The method, then: as §1
In the next data set the test system is MDR1. Described as above. The data set is classed as in vitro ADME, canine. To be noted: dog. The method, then: as §1
The nature of the next data set: Human Fu (plasma). The class given is in vitro ADME. The method, then:
as §1

A further data set is described as follows: Rat Fu (brain). The class given is in vitro ADME. The method, then: as §1
The target in another data set is P450 2D6 (Homo sapiens, UniProt P10635). As to the kind of experiment: P450 2D6 inhibition. The data set is classed as in vitro ADME. The method, then:
as §1

Data set [1] is described as follows: In vivo pharmacokinetics in dogs (IV and PO). The method, then: Compound 1 was evaluated in several in vivo studies to investigate its metabolism and pharmacokinetics.
Dogs (male, Beagle, weighing approximately 8-15 kg, n=2) were dosed intravenously (0.5 mg/kg) via cephalic vein and orally (3 mg/kg) by gavage. Blood samples were collected from the jugular vein via needlestick. Blood samples were obtained at 0.083, 0.25, 0.5, 1, 2, 4, 6, 10, and 24 hours (IV) and 0.25, 0.5, 1, 2, 4, 6, 10, and 24 hours (PO) and plasma harvested for analysis. Sample preparation and bioanalysis was conducted as described above.

The test system of the next data set is male Sprague-Dawley rats. Briefly: Reversal of amphetamine-induced hyperlocomotion in rats. The class given is in vivo, rat. The method, then:
Drugs: d-Amphetamine hemisulfate was obtained from Sigma (St. Louis, Mo.). Salt-correction was used to determine the correct amount of the d-amphetamine hemisulfate form in milligrams to add to sterile water in order to yield a 0.75 mg/mL solution, which would be dosed at 1 mL/kg body weight of each animal. […] The solutions were formulated so that animals were injected with a volume equal to 10 mL/kg body weight for all compounds. The appropriate amount according to the dosage was mixed in 10% Tween 80 (Sigma) 90% sterile water. The mixtures were then vortexed and stored in a 39° C. sonication bath for 1 hour, until in a microsuspension (except for the highest dose, which was a suspension).
Animals: Male Sprague-Dawley rats weighing 239-300 grams and averaging 265 g (Harlan, Inc., Indianapolis, Ind.) were used. They were housed in the animal care facility certified by the American Association for the Accreditation of Laboratory Animal Care (AALAC) under a 12-hour light/dark cycle (lights on: 6 a.m.; lights off: 6 p.m.) and had free access to food and water. The animals used in this experiment were food-deprived the evening before experimentation for oral dosing of compound/vehicle. The experimental protocols performed during the light cycle were approved by the Institutional Animals Care and Use Committee of Vanderbilt University and conformed to the guidelines established by the National Research Council Guide for the Care and Use of Laboratory Animals.
Amphetamine-induced Hyperlocomotion: Male Harlan Sprague Dawley rats were habituated in Smart Open Field locomotor activity test chambers (Hamilton-Kinder, San Diego, Calif.) with 16×16 photo beams to automatically record locomotor activity. […] They were monitored for an additional 30 minutes and then injected subcutaneously with vehicle or […] amphetamine. Animals were then monitored for an additional 60 minutes, for a total of 120 minutes. Data were expressed as changes in ambulation defined as total number of beam breaks per 5 minute interval. […]
Data Analysis: Behavioral data were analyzed using a two-way ANOVA with main effects of treatment and time. […] In addition, the total number of beam breaks from the amphetamine administration (65 min) to the end of the study (120 min) was calculated and graphed. Percent Reversal was calculated as follows using Microsoft Excel: In each animal, total ambulation from t=65 to t=120 was summed. The mean of each sum was calculated in the VAMP group. Then, for each animal, Percent Reversal was calculated with the following formula: Percent Reversal=100−{[(total ambulation in each animal from t=65 to t=120)/(mean of each sum from t=65 to t=120 in VAMP group)]*100}. The mean Percent Reversal, as well as the standard error, was calculated for each dose group using GraphPad Prism V5.04.

Another data set addresses P450 2C9 (Homo sapiens, UniProt P11712). As to the kind of experiment: P450 2C9 inhibition. The data set is classed as in vitro ADME. The method, then:
as §1

The next data set concerns the target P450 3A4 (Homo sapiens, UniProt P08684). Briefly: P450 3A4 inhibition. The data set is classed as in vitro ADME. The method, then: as §1

P450 2D6, sequence (P10635 whole entry): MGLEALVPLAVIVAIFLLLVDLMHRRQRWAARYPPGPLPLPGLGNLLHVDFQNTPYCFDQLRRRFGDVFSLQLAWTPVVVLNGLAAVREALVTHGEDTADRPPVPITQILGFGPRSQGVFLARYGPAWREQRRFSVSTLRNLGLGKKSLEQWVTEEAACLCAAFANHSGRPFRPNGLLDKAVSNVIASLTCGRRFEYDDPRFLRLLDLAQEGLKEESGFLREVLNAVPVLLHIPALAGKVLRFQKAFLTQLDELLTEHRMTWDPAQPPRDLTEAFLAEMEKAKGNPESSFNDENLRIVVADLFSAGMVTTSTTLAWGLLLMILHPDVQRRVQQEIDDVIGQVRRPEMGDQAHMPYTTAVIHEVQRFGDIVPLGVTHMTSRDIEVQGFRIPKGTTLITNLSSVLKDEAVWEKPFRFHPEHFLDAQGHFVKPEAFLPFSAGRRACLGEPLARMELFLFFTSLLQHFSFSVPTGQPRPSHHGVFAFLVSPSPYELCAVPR
P450 3A4, sequence (P08684 whole entry): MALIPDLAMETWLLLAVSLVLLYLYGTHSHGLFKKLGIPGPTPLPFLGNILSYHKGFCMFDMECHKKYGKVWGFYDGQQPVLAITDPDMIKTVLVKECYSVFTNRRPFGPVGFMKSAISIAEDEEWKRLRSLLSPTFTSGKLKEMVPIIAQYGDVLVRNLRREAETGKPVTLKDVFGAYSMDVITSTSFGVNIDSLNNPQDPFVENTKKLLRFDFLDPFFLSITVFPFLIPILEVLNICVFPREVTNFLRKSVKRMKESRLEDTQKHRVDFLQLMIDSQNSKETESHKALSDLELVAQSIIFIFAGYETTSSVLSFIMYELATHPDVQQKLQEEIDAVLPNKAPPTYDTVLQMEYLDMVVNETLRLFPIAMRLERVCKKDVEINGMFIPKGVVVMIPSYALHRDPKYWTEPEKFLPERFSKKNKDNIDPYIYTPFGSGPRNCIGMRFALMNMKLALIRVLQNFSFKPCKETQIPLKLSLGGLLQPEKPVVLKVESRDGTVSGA
P450 2C9, sequence (P11712 whole entry): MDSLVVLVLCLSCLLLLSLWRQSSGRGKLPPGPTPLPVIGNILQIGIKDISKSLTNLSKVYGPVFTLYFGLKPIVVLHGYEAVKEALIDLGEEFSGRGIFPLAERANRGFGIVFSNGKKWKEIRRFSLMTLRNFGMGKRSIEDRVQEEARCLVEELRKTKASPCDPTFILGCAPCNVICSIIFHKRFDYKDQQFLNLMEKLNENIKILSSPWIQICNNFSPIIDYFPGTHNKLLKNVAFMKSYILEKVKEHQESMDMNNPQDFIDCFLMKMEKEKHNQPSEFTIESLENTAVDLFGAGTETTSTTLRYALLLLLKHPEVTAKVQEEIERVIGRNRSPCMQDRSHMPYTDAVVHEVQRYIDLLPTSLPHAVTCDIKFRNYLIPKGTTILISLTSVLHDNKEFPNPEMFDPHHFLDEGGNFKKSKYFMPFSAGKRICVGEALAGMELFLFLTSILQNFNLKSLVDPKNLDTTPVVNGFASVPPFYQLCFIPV

The IC50 is the concentration that gives 50% inhibition. As usually defined, the Papp A→B is how fast a substance crosses the layer from the apical side. Low values mean slow passage, high ones fast passage. For orientation: fraction unbound means the share of the substance not bound to proteins or other matrix. A low value points to extensive binding. As to `Cc1nc(C)c2c(n1)sc1c(NCc3ccc(C(C)(C)O)cc3)ncnc12` [Compound 1, 2-(4-(((7,9-Dimethylthieno[2,3-d:4,5-d′]dipyrimidin-4-yl)amino)methyl)phenyl)propan-2-ol], the half-inhibitory concentration (IC50) against P450 1A2 was 23 µM; at P450 2D6, > 30 µM; against P450 2C9 it was 17 µM; at P450 3A4 it was 17 µM. Besides, the “MDCK-MDR1 ER” value in the data set on MDCK-MDR1 cells was 1.5 (Papp A→B:. In the data set with MDR1, the Papp A→B amounted to 46.7 ×10⁻⁶ cm/s. Besides, the fraction unbound in “Human Fu (plasma)” came out at 0.014; in the data set “Rat Fu (brain)” it was 0.016. The “Dog oral F” value in [1] (3 mg/kg PO) is given as 28%. In data set [1] (male, Beagle, dog, plasma, read-out: Dog Elim. t1/2 (converted)), the half-life is 2.4 h. Further, the clearance in data set [1] (male, Beagle, plasma, dog, IV 0.5 mg/kg, read-out: Dog CLp) amounted to 24 mL/min/kg. For the same compound, in data set [1] (male, Beagle, plasma, dog, IV 0.5 mg/kg, read-out: Dog Vss), the Vd came to 2.3 L/kg. The “percent reversal of amphetamine-induced hyperlocomotion” value was found to be 30.5% in the data set with male Sprague-Dawley rats (1 mg/kg p.o.), 41.1% with male Sprague-Dawley rats (3 mg/kg p.o.) and 54.2% in the data set with male Sprague-Dawley rats (10 mg/kg p.o.).
